Experimental data as given in patent publication US6359015B1, “Method for antagonizing inhibition effects of alcohol on cell adhesion” (The United States of America as represented by the …, priority 2000, dated 2002).

Legend:
[1] = from published source or octanol/water partition coefficient divided by 5; cited from earlier work
[2] = tested on: BMP-7 treated NG108-15 neuroblastoma×glioma cells; assay: Cell-cell adhesion (short-term aggregation) assay in BMP-7 treated NG108-15 cells; format: cell-based, rat and mouse; settings: for Inhibition of cell-cell adhesion (in words): both cellular systems (NG108-15 + BMP-7 and L1-expressing NIH/3T3); for Inhibition of cell-cell adhesion at higher concentrations (in words): concentrations 5-10 fold higher than those reported in Table 1
Protocol: NIH/3T3 cells were cultured in Dulbecco's minimum Eagle medium (DMEM) (Life Technologies, Gaithersburg, Md.) supplemented with 10% normal calf serum (Intergen, Purchase, N.Y.) and 400 μg/ml G418 (Life Technologies). NG108-15 neuroblastoma×glioma cells (passages 21 to 30) were plated in serum-free, defined medium (Reference 16). At the start of the morphogenetic and cell adhesion assays, serum-free medium containing BMP-7 (Creative BioMolecules, Hopkinton, Ma.) (1-40 ng/ml, final) was added daily to the NG108-15 cells. Both cell lines were cultured at 37° C., in an atmosphere of 90% air and 10% CO2. Three NIH/3T3 subclones were utilized in these studies: 2B2-L1, 2A2-L1 and Vec-1A5. The 2B2-L1 and 2A2-L1 cell lines are subclones derived from a stable transfection of NIH/3T3 cells with the human L1 cDNA, and Vec-1A5 is a subclone from a transfection with the empty expression vector (Reference 12).
Cells were cultured and cell adhesion assays were performed in the absence and presence of the alcohols listed below in Table 1. The concentrations of alcohols used in the adhesion assays were calculated to produce membrane concentrations equivalent to 50-100 mM ethanol. Membrane/buffer partition coefficients (Pm/b) were obtained or were calculated from published octanol/water partition coefficients (Reference 15). Molar volumes were obtained from published sources (References 15) or were calculated from molecular weights and densities at 20° C.
(§1) Cell-cell adhesion was measured using a modified short-term aggregation assay of sub-confluent cells (Reference 12). Cells were detached by gentle agitation, mechanically dissociated to obtain a single-cell suspension, and diluted in PBS supplemented with 0.1 mg/ml DNase to 350,000 cells/ml for the NIH/3T3 cells, and 250,000 cells/ml for the NG108-15 cells. One ml of the cell suspension was added per well (4.5 cm^2) of a 12-well plate. After addition of the alcohols, the cells were gently mixed and mechanically shaken for 30 minutes at room temperature on an orbital shaker set at 60 to 80 rpm. Cells were viewed at a final magnification of 200×, and each well was scored for single and adherent cells in five or six microscopic fields of view. We counted approximately 100 cells per field of view and 600 cells per well. The percentage of adherent cells was calculated for each microscopic field of view and averaged. To calculate the magnitude of ethanol inhibition, we subtracted the values for cell adhesion with the Vec-1A5 cells from those of the 2B2-L1 or 2A2-L1 cell lines. Similarly, the values for cell adhesion in NG108-15 cells cultured in serum-free medium were subtracted from those of NG108-15 cells treated with BMP-7.
We tested the effects of a series of alcohols on cell-cell adhesion in two well-characterized model systems. NG108-15 cells were incubated for 48 hours in a serum-free medium supplemented with 10-20 ng/ml BMP-7 to induce L1 and N-CAM gene expression (Reference 10). Parallel experiments were performed using two ethanol-sensitive NIH/3T3 cell lines transfected with human L1 (2B2-L1 and 2A2-L1) (Reference 12) and a NIH/3T3 cell line transfected with the empty expression vector (1A5-V).

[3] = published or calculated from molecular weight and density at 20° C.; cited from earlier work
[4] = tested on: NIH/3T3-L1 (2B2-L1) cells; assay: Antagonism of 1-butanol inhibition of cell adhesion in NIH/3T3-L1 (2B2-L1) cells; format: cell-based, rat; settings: 2B2L1 cells, no 1-octanol pretreatment, washed
Protocol: as §1, with “BMP-7. […]” for “BMP-7.”

[5] = tested on: BMP-7 treated NG108-15 cells; assay: Antagonism of short-chain alcohol inhibition of cell adhesion in BMP-7 treated NG108-15 cells; format: cell-based, rat and mouse
Protocol: as §1

[6] = tested on: NG108-15 cells; assay: BMP-7 morphogenesis (cell clusters) in NG108-15 cells; format: cell-based, rat and mouse; settings: 0.1-40 ng/ml BMP-7, 3 days
Protocol: NG108-15 cells were plated from suspensions of single cells at a density of 50,000 cells/well in poly-D-lysine-coated, 6-well plated containing serum-free medium in the absence or presence of BMP-7, as described (References 17-18). […] Control cultures were treated similarly. The media for all cells was replaced daily following the addition of ethanol. […] A cell cluster was defined as a group of three or more cells that adhered to each other along at least one quarter of their cell bodies (Reference 19). The percentage of cells in clusters was calculated by dividing the number of cells present in clusters by the total number of cells (150 to 200) in each field. Values obtained for each field of a treatment group were then averaged.
Treatment with BMP-7 for 48 hours causes NG108-15 cells to grow in clusters of adherent cells (BMP-7 morphogenesis), rather than as predominantly single cells.
The percentage of cells in clusters of three or more cells was scored from two separate fields viewed under 200×magnification.

For `CC(O)C1CC1` (stereo not drawn) [cyclopropyl-ethanol, cyclopropylethanol], the “P(m/b) membrane/buffer partition coefficient” value [1] is listed as 0.83, the “Inhibition of cell-cell adhesion (in words)” value [2] is listed as “abolished activity” and the “Inhibition of cell-cell adhesion at higher concentrations (in words)” value [2] is listed as “inactivity”. The Vm molar volume [3] was 91 mL/mol.

For `CCC(CC)CO` [2-ethyl-1-butanol], the “P(m/b) membrane/buffer partition coefficient” value [1] is listed as 9.14, the “Inhibition of cell-cell adhesion (in words)” value [2] is listed as “did not reduce activity” and the Vm molar volume [3] is listed as 123 mL/mol.

For `OC1CCC1` [cyclobutanol], the “P(m/b) membrane/buffer partition coefficient” value [1] is given as 0.91, the “Inhibition of cell-cell adhesion (in words)” value [2] is given as “inhibited” and the Vm molar volume [3] is given as 78 mL/mol.

For `CCCC(C)O` (stereo not drawn) [2-pentanol], the “P(m/b) membrane/buffer partition coefficient” value [1] is listed as 4.38, the “Inhibition of cell-cell adhesion (in words)” value [2] is listed as “abolished activity” and the Vm molar volume [3] is listed as 109 mL/mol.

With 1-butanol the “1-butanol inhibition of cell-cell adhesion, control” value [4] was 43.6±3.0% and the “Inhibition of cell-cell adhesion (in words)” value [2] was “maximally inhibited”.

For `CCCC(C)(C)O` [2-methyl-2-pentanol], the “P(m/b) membrane/buffer partition coefficient” value [1] is given as 5.20 and the Vm molar volume [3] is given as 122 mL/mol.

In the case of `CC(C)(C)CCO` [3,3-dimethyl-1-butanol], the “P(m/b) membrane/buffer partition coefficient” value [1] is given as 5.77, the “Potency for inhibition of cell adhesion relative to 2-ethyl-1-butanol” value ([2]; IC50 comparison, FIG. 2) is given as “more than four times as potent” and the “Inhibition of cell-cell adhesion (in words)” value [2] is given as “did not reduce activity”. The Vm molar volume [3] was 121 mL/mol.

In the case of `OCc1ccccc1` [benzyl alcohol], the “P(m/b) membrane/buffer partition coefficient” value [1] is listed as 2.52, the “Inhibition of cell-cell adhesion (in words)” value [2] is listed as “did not” and the Vm molar volume [3] is listed as 104 mL/mol.

In the case of `C=CCCO` [3-buten-1-ol], the “P(m/b) membrane/buffer partition coefficient” value [1] is given as 1.00, the “Inhibition of cell-cell adhesion (in words)” value [2] is given as “abolished activity” and the “Inhibition of cell-cell adhesion at higher concentrations (in words)” value [2] is given as “inactivity”. The Vm molar volume [3] was 86 mL/mol.

In the case of `CC(C)CCO` [3-methyl-1-butanol], the “P(m/b) membrane/buffer partition coefficient” value [1] is given as 2.89, the “Inhibition of cell-cell adhesion (in words)” value [2] is given as “did not reduce activity” and the Vm molar volume [3] is given as 109 mL/mol.

With `CCCCCO` [1-pentanol] the “Antagonism of inhibition of cell-cell adhesion by 1-butanol (in words)” value ([5]; 2 mM 1-butanol, BMP-7 treated NG108-15 cells) was “completely abolished”, the “Antagonism of the effects of 3-methyl-1-butanol on cell adhesion (in words)” value ([5]; 3 mM 3-methyl-1-butanol) was “abolished” and the “Antagonism of the effects of ethanol on cell adhesion (in words)” value ([5]; 100 mM ethanol) was “abolished”. For the same molecule, the IC50 ([5]; NG108-15, read-out: IC50 for antagonism of 1-butanol (and ethanol) inhibition of cell-cell adhesion) was 715 µM, the “P(m/b) membrane/buffer partition coefficient” value [1] was 5.02 and the “Inhibition of cell-cell adhesion (in words)” value [2] was “not inhibited”. The “Inhibition of cell-cell adhesion at higher concentrations (in words)” value [2] was “inactivity” and the Vm molar volume [3] was 108 mL/mol.

In the case of `CC(C)CCCO` [4-methyl-1-pentanol], the “P(m/b) membrane/buffer partition coefficient” value [1] is given as 9.36, the “Inhibition of cell-cell adhesion at higher concentrations (in words)” value [2] is given as “inactivity” and the Vm molar volume [3] is given as 126 mL/mol.

For `CCC(O)CC` [3-pentanol], the “P(m/b) membrane/buffer partition coefficient” value [1] is listed as 4.69 and the Vm molar volume [3] is listed as 107 mL/mol.

In the case of `CC(C)CO` [2-methyl-1-propanol], the “P(m/b) membrane/buffer partition coefficient” value [1] is listed as 1.10, the “Inhibition of cell-cell adhesion (in words)” value [2] is listed as “active” and the Vm molar volume [3] is listed as 90 mL/mol.

For `OCC1CC1` [cyclopropyl methanol], the “P(m/b) membrane/buffer partition coefficient” value [1] is given as 0.71, the “Inhibition of cell-cell adhesion (in words)” value [2] is given as “active” and the Vm molar volume [3] is given as 71 mL/mol.

In the case of `CC(C)c1cccc(C(C)C)c1O` [propofol], the “P(m/b) membrane/buffer partition coefficient” value [1] is listed as 1.00, the “Inhibition of cell-cell adhesion (in words)” value [2] is listed as “did not inhibit” and the Vm molar volume [3] is listed as 86 mL/mol.

For `OC1CCCC1` [cyclopentanol], the “P(m/b) membrane/buffer partition coefficient” value [1] is given as 2.24, the “Inhibition of cell-cell adhesion (in words)” value [2] is given as “did not” and the “Inhibition of cell-cell adhesion at higher concentrations (in words)” value [2] is given as “inactivity”. The Vm molar volume [3] was 92 mL/mol.

For `CCCO` [1-propanol], the “Inhibition of cell-cell adhesion (in words)” value [2] was “active”.

B1: BMP-7: growth factor that induces expression of L1 in neural cells (protein, UniProt P18075 293-431, looked up)
Bone morphogenetic protein 7: STGSKQRSQNRSKTPKNQEALRMANVAENSSSDQRQACKKHELYVSFRDLGWQDWIIAPEGYAAYYCEGECAFPLNSYMNATNHAIVQTLVHFINPETVPKPCCAPTQLNAISVLYFDDSSNVILKKYRNMVVRACGCH
With B1 the “Percentage of cell clusters” value [6] was “dose-dependent increase” and the “Percentage of adherent NG108-15 cells” value ([2]; 48 hours, 10-20 ng/ml BMP-7, control 17.0±[…]) was 50.0±1.4%.
